According to ChEMBL document CHEMBL4888484, “Replenishing the malaria drug discovery pipeline: Screening and hit evaluation of the MMV Hit Generation Library 1 (HGL1) against asexual blood stage Plasmodium falciparum ,using a nano luciferase reporter read-out” (2022):

What was measured:
[1] = test system: Plasmodium falciparum; assay: Hit confirmation in dose-response curve in NF54 nanoGlo assay, at 72h; assay type: functional, organism-based, Erythrocyte; parameters: timepoint 72 hour
[2] = test system: Plasmodium falciparum; assay: Hit confirmation in dose-response curve in NF54 nanoGlo assay, at 12h; assay type: functional, organism-based, Erythrocyte; parameters: timepoint 12 hour
[3] = test system: Plasmodium falciparum; assay: Hit confirmation in dose-response curve in Dd2 pLDH assay, at 72h; assay type: functional, organism-based; parameters: timepoint 72 hour; details: Dd2, Erythrocyte
[4] = test system: Plasmodium falciparum; assay: Hit confirmation in dose-response curve in NF54 pLDH assay, at 72h; assay type: functional, organism-based; parameters: timepoint 72 hour; details: NF54, Erythrocyte
[5] = Hit confirmation in dose-response curve in HepG2 cytotoxicity assay, at 72h; assay type: toxicity, cell-based; parameters: timepoint 72 hour; details: human, HepG2 cells
[6] = Plasmodium falciparum, NF54, Erythrocyte, 72 h
[7] = Plasmodium falciparum, NF54, Erythrocyte, 12 h

Row | Structure (SMILES) | IC50 [1, 6] [nM] | IC50 [2, 7] [nM] | IC50 [3] [nM] | IC50 [4] [nM] | IC50 at 72 h [5] [nM] | IC50 ([1]; erythrocyte) [nM] | IC50 ([2]; erythrocyte) [nM]
1 | CCOc1ccc(C2c3[nH]c4ccccc4c3C[C@H]3C(=O)N(C4CCN(Cc5ccccc5)CC4)CC(=O)N23)cc1OC (some centres undefined) | 1150 | 2690 | 2750 | 5130 | > 10000 | – | –
2 | CCOc1cc(CNc2cccc3ccccc23)cc(Br)c1OCC(=O)NC(C)(C)C | > 10000 | > 10000 | > 10000 | > 10000 | > 10000 | – | –
3 | COc1ccc(-[n+]2c(-c3ccccc3)cn3c2CCC3)cc1 | 794 | > 10000 | 776 | 1410 | > 10000 | – | –
4 | COc1ccc(C(=O)C[n+]2cc(-c3ccc(OC)cc3)n3c2CCCC3)cc1 | 1410 | > 10000 | 1480 | 2340 | > 10000 | – | –
5 | COc1ccc(-c2c[n+](-c3ccc(Cl)cc3)c3n2CCCCC3)cc1 | 1380 | > 10000 | 1000 | 2240 | > 10000 | – | –
6 | CC[n+]1c(/C=C/N(C)c2ccccc2)oc2ccccc21 | 724 | > 10000 | 661 | 741 | > 10000 | – | –
7 | COc1ccc(C(=O)C[n+]2nc(CNc3ccc(Br)cc3)n3c2CCCCC3)cc1 | 537 | 9550 | 646 | 759 | > 10000 | – | –
8 | NC(=O)C1CCN(CCC(=O)N2CCc3cc4ccc3[C@@H]2c2cccc(c2)OCCCNC(=O)c2cc(ccc2O)O4)CC1 | – | 3160 | – | – | > 10000 | – | –
9 | CC[N+](C)(CC)CCOc1cc(C)c2ccccc2n1 | 2240 | > 10000 | 2690 | 4680 | > 10000 | – | –
10 | COc1ccc(C(=O)Nc2ccc3c(c2)C(=O)Nc2cccnc2O3)cc1OC | 3160 | 11000 | > 10000 | > 10000 | > 10000 | – | –
11 | COc1ccc(-[n+]2c(-c3ccc(-c4ccccc4)cc3)cn3c2COCC3)cc1 | 2140 | > 10000 | 2090 | 2400 | > 10000 | – | –
12 | O=c1[nH]c(=O)n(S(=O)(=O)c2ccccc2)cc1F | 2.75 | 2040 | > 10000 | 3.47 | > 10000 | – | –
13 | CN(C)CC(O)COc1ccc(S(=O)(=O)c2ccc(OCC(O)CN(C)C)c(Cl)c2)cc1Cl (centres undefined) | 1510 | 3980 | 1380 | 2450 | > 10000 | – | –
14 | COC[C@H](NCCc1cc(F)cc2c1OCOC2)C1CC1 | 661 | > 10000 | > 10000 | 891 | > 10000 | – | –
15 | c1ccc(-c2nc(C[n+]3ccc4c(c3)CCCC4)cs2)cc1 | 1200 | > 10000 | 832 | 89.1 | > 10000 | – | –
16 | COc1ccc(CCNc2oc(-c3cccnc3)nc2C#N)cc1OC | 3980 | 2400 | > 10000 | > 10000 | > 10000 | – | –
17 | Nc1nc2c(s1)CN(CCc1ccccc1)CC2 | 3980 | > 10000 | 5620 | 6920 | > 10000 | – | –
18 | CC(C)[C@@H]1CC[C@H](C)C[C@H]1OC(=O)Cn1cc(-c2ccc(Cl)cc2)[n+]2c1CCC2 | 955 | 5010 | 1200 | 2340 | > 10000 | – | –
19 | COc1ccccc1C1c2[nH]c3ccccc3c2C[C@H]2C(=O)N(CC(O)c3ccccc3)CC(=O)N12 (some centres undefined) | 3160 | 4470 | > 10000 | 8910 | > 10000 | – | –

Row | Structure (SMILES) | IC50 [1, 6] [nM] | IC50 [2, 7] [nM] | IC50 [3] [nM] | IC50 [4] [nM] | IC50 at 72 h [5] [nM] | IC50 ([1]; erythrocyte) [nM] | IC50 ([2]; erythrocyte) [nM]
20 | C[C@@H](CNc1nc(-c2ccccc2)nc2nc(-c3ccc(Cl)cc3)oc12)N1CCCCC1 | 3390 | 9550 | 5890 | 7590 | > 10000 | – | –
21 | Cc1ccc2nc(-c3cc4ccccc4o3)cn2c1 | 2040 | > 10000 | 2690 | 3020 | > 10000 | – | –
22 | C[n+]1ccccc1/C=C/c1c[nH]c2ccccc12 | 407 | 5010 | 437 | 676 | 7940 | – | –
23 | COc1ccc(CCc2nc(NC(=O)c3nc(C)sc3C)n[nH]2)cc1OC | 1450 | 676 | > 10000 | > 10000 | > 10000 | – | –
24 | COc1ccc2[nH]c3c(c2c1)CC(C(=O)O)NC3c1ccc(OC)c(CN2CCN(c3ccccc3F)CC2)c1 (centres undefined) | 1550 | 3980 | 2880 | 3800 | > 10000 | – | –
25 | Cc1cc(=O)c(OCC(=O)N2CCN([C@@H](c3ccccc3)c3ccc(Cl)cc3)CC2)c[nH]1 | 1860 | > 10000 | 3470 | 5010 | > 10000 | – | –
26 | CC[N+](CC)(CC(=O)OC1CC2CCC1(C)C2(C)C)CC(=O)OC1CC2CCC1(C)C2(C)C (centres undefined) | 1820 | 4680 | 2190 | 2820 | > 10000 | – | –
27 | N#Cc1nc2c(C#N)c(N)n(CCc3ccccc3)c2nc1C#N | 1380 | 2040 | 1450 | 347 | > 10000 | – | –
28 | c1ccc2c[n+](Cc3ccc4ccccc4n3)ccc2c1 | 1950 | > 10000 | 2450 | 2570 | > 10000 | – | –
29 | COc1cccc(-c2nc(C)c(C(=O)Nc3n[nH]c(CC(C)C)n3)s2)c1 | 676 | 794 | > 10000 | > 10000 | > 10000 | 1170 | 631
30 | Cc1nn(-c2ccccn2)c(O)c1C(c1ccccc1)c1c(C)nn(-c2ccccn2)c1O | 1020 | 1000 | 3550 | 5500 | > 10000 | – | –
31 | CN1CCCN(c2ccnc3ccsc23)CC1 | 2950 | 3800 | 2450 | 3800 | > 10000 | – | –
32 | C[N+]12CCCCC1C(OC(=O)C1(c3ccccc3)CCCC1)CCC2 (centres undefined) | 2040 | > 10000 | 2040 | 2820 | > 10000 | – | –
33 | CCOC1CC(NC2CC(c3ccc(F)cc3)C2)C12CCC2 (centres undefined) | 5010 | 6310 | 2630 | 3630 | > 10000 | – | –
34 | CCCN1C(=O)c2ccccc2N2C(=O)CC[C@@]12C(=O)Nc1ccc(OC)cc1 | 1450 | 1380 | 2750 | 3470 | > 10000 | – | –
35 | CCCN1C(=O)c2ccccc2N2C(=O)CC[C@@]12C(=O)Nc1ccccc1 | 1100 | 1660 | 2880 | 4170 | > 10000 | – | –
36 | Cn1ccnc1[C@@H]1CCCN1Cc1nccn1Cc1ccccc1 | 2090 | 6760 | 3240 | 2820 | > 10000 | – | –
37 | COc1ccc(CCNC(=O)C2CCN(c3nccn4nc5c(c34)CCCC5)CC2)cc1OC | 4070 | 8910 | > 10000 | > 10000 | > 10000 | – | –
